5 substances from US20240115729A1, “COMPOSITIONS AND METHODS FOR TARGETED ANTIFIBROTIC THERAPY IN CHRONIC PANCREATITIS” (University of Virginia Patent Foundation, priority 2021, published 2024) can be followed below.

“And” between values parts separate entries of the source, which are not always exact repeats. Identical values can stand only once.

In assay [1] the test system is cellular components in the CP microenvironment. Put plainly: Cellular selectivity of phage clones: one-way ANOVA and Tukey-Kramer comparison of MCC of all cell markers. The format is in vivo, mouse. Conditions: for Cell type the phage clone shows specificity to / Marker the phage clone shows specificity to: CP microenvironment; for Colocalized Markers (p < 0.05) / Corresponding Cellular Components: statistically significant selectivity for a single cellular component in CP. The text has this: (§1) Immunofluorescence (IF). Post ex vivo imaging, mouse pancreata were submerged in Neg-50 Frozen Section Medium (Thermo Scientific, Waltham, Massachusetts, United States of America) and snap-frozen over liquid nitrogen vapor. The embedded tissues were cut into 5 μm sections using a cryostat (Leica Microsystems Inc., Buffalo Grove, Illinois, United States of America) for subsequent imaging with ZEISS LSM-880 Confocal Laser Scanning Microscope (Carl Zeiss Meditec, Inc., Jena, Germany) at the Advanced Microscopy Facility at the University of Virginia. Cell types of interest in the pancreatitis microenvironment were identified by immunohistochemistry using the following antibodies: rat anti-mouse CD31 at 1:200 dilution (endothelial markers; BD Biosciences, San Jose, California, United States of America), rat anti-mouse CD206 at 1:1000 dilution (M2 macrophage markers; Bio-Rad, Hercules, California, United States of America), rabbit anti-mouse cytokeratin 7 at 1:3000 dilution (CK-7, epithelial markers; Abcam, Cambridge, Massachusetts, United States of America), rabbit anti-mouse collagen IIIa at 1:200 dilution (ECM markers; Abcam, Cambridge, Massachusetts, United States of America), goat anti-mouse carboxypeptidase A1 at 1:200 dilution (CPA1, acini markers; R&D Systems, Inc., Minneapolis, Minnesota, United States of America), rat anti-mouse F4/80 at 1:500 (macrophage markers; Bio-Rad, Hercules, California, United States of America), and FITC-conjugated, mouse anti-mouse α-SMA at 1:200 dilution (MilliporeSigma, St. Louis, Missouri, United States of America). ALEXA FLUOR® 488 (Abcam, Cambridge, Massachusetts, United States of America) antibodies from appropriate species, including donkey anti-goat, donkey anti-rat, donkey anti-rabbit at 1:500 dilution, were used as secondary antibodies to locate the primary antibodies. IF-stained pancreatic sections were mounted with PROLONG™ Gold Antifade Mountant with DAPI (Thermo Fisher Scientific Inc, Waltham, Massachusetts, United States of America, United States of America) for nucleus visualization. IF images were taken on Ziess LSM 880 Confocal Microscope (ZIESS, Oberkochen, Germany) at the Advanced Microscopy Facility at the University of Virginia.
Statistical analysis. Statistical analysis of the data was performed by student t-test, one-way analysis of variance (ANOVA), and Tukey-Kramer test. All data presented are expressed as mean+standard error of at least three independent measurements. For all comparisons, p-values<0.05 were considered significant.
(§2) To identify the cell types that the CP targeting clones were binding, immunofluorescent analysis was performed on common cellular components in the CP microenvironment in the inflamed pancreas sections following in vivo validation of individual clones (FIG. 7). Mander's correlation coefficient (MCC) analysis was performed to determine colocalization of the targeting phage to the cell markers.

The subject of assay [2] is caerulein-induced CP mice (inflamed pancreas) versus healthy mice. Kind of assay: In vivo validation of individual phage clones: ex vivo IVIS fluorescence of organs after co-injection of targeting phage (VT680) and wild type M13Ke phage (VT750). Set-up: species or system mouse (C57BL/6J). Conditions: for CP-to-Healthy Ratio (fold change of specificity ratio): Pancreas; for specificity for CP over healthy pancreas: individual clones from Groups 2 and 3. Here is the method:
C57BL/6 J mice (6-12 week-old, female) were used for the in vivo phage screening. For chronic pancreatitis, caerulein (Bachem, Torrance, California, United States of America) was dissolved in sterile saline and administrated to mice twice a day, 8 hours apart for 14 consecutive days, at a concentration of 250 μg/kg body weight via intraperitoneal injection (Halbrook et al., 2017), as shown in FIG. 1A. During the 14-day course, intraperitoneal injections of 100 μg/kg buprenorphine were given every 3 days to minimize the induced pain. For healthy controls, c57BL/6 J mice were injected intraperitoneally with an equal volume of sterile saline following the same schedule as in the chronic pancreatitis models. […] Picrosirius red (Polysciences, Inc., Warrington, Pennsylvania, United States of America) was used to visualize collagen in paraffin-embedded pancreas sections (FIG. 1B).
Specificity of phage clones. After PHASTpep analysis and candidate clone selections, 18 candidate clones were grouped (4-5 clones per group, 4 groups total) based on sequence similarity using GibbsCluster Server 2.0 (Andreatta et al., 2017). by the Technical University of Denmark (FIG. 2). […] For each group, the fluorescently labeled candidate and WT phage were mixed and co-injected in CP and healthy mice (n=5) Phage accumulation was determined by measuring the ex vivo fluorescent intensity of the pancreas at 20 hours post-injection using the Fluorescent Molecular Tomography (FMT, PerkinElmer, Waltham, Massachusetts, United States of America) using the excitation and emission wavelength at 675 nm/720 nm for VT680 and 745 nm/800 nm for VT750. To account for variations of fluorescent labeling efficiency, the raw readouts of VT680 and VT750 were normalized to the dye-per-phage ratio (see Table 3 below).
The specificity ratio was calculated as % ID/g of the normalized VT680 divided by the % ID/g of the normalized VT750 (see Equation (1)). Quantifications are included in Table 4.
A similar procedure was applied to determine the specificity of individual phage clones in Groups 2 and 3. Candidate clones were labeled with VivioTag 680 (VT680, PerkinElmer, Waltham, MA) to match the detectable wavelength of the IVIS Spectrum Series (Perkin Elmer, Waltham, Massachusetts, United States of America). Fluorescent intensity was measured at 20 hours post-injection of candidate phage (VT680) and WT phage (VT750). Fold change of specificity ratio was calculated as the specificity ratio of CP mice divided by the specificity ratio of the healthy mouse (see Table 5).

The subject of a further assay is CK7 (epithelium). Put plainly: Immunofluorescence colocalization (MCC) of VT680-labeled phage with cell marker in CP pancreas. It is filed as in vivo, mouse. The note with it: CP pancreas sections.
Text: as §1, §2

Assay [3] relates to CPA-1+ cells (acinar cells). Described as above. The format is in vivo, mouse. Conditions: CP pancreas sections.
Text: as §1, §2

The test system of assay [4] is F4/80+ cells (macrophages). The assay is described as above. It is filed as in vivo, mouse. Conditions: CP pancreas sections.
Text: as §1, §2

For the next assay, the system named is CD31 (endothelium). Described as above. The note with it: CP pancreas sections. It is filed as in vivo, mouse.
Text: as §1, §2

Assay [5] deals with αSMA+ cells (activated PSC). The assay is described as above. The format is in vivo, mouse. The note with it: CP pancreas sections.
Text: as §1, §2

The subject of assay [6] is collagen IIIa+ cells (ECM). The description is as above. It is filed as in vivo, mouse. Conditions: Col IIIa; CP pancreas sections.
Text: as §1, §2

In another assay the target is F4/80 (mouse) (UniProt Q61549). Kind of assay: IF colocalization (JACoP) of VT680 phage with marker, CP mouse pancreas sections.
UniProt Q61549, sequence (Q61549 28-931): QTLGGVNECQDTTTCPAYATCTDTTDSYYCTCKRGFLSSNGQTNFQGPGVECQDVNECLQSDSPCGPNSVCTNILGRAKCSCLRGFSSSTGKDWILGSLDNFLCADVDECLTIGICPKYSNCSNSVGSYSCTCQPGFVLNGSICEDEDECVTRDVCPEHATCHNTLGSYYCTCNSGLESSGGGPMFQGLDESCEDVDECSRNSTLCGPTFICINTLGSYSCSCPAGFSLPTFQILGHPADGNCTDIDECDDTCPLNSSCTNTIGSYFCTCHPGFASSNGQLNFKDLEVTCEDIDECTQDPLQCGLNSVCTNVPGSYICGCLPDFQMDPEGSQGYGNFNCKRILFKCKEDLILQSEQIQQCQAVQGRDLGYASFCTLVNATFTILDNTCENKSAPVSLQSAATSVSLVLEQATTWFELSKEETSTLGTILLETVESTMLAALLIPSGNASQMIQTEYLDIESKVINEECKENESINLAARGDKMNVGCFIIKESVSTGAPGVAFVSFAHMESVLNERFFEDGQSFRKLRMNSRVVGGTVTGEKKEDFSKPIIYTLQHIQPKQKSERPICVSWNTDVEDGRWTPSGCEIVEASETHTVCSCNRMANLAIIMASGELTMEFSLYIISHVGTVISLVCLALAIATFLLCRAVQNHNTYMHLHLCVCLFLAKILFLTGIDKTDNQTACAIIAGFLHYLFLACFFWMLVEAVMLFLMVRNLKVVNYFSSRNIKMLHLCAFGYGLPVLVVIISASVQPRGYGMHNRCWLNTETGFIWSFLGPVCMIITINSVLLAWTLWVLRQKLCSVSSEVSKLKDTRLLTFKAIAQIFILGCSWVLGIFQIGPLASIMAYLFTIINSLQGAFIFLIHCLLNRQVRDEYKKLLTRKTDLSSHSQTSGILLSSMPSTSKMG
For assay [7], the target named is carboxypeptidase A1 (CPA1) (mouse) (UniProt Q7TPZ8). The assay is described as above.
UniProt Q7TPZ8, sequence (Q7TPZ8 111-419): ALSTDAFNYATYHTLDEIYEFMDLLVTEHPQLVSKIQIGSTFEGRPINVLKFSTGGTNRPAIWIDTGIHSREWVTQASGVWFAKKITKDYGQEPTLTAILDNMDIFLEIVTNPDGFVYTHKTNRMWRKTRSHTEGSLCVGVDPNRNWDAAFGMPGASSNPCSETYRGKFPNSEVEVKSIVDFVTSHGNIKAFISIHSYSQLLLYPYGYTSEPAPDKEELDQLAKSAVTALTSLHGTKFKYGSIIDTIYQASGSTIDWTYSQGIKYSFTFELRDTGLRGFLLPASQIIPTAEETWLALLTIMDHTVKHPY
Assay [8] deals with cytokeratin 7 (CK-7) (mouse) (UniProt Q9DCV7). The description is as above.
UniProt Q9DCV7, sequence (Q9DCV7 2-457): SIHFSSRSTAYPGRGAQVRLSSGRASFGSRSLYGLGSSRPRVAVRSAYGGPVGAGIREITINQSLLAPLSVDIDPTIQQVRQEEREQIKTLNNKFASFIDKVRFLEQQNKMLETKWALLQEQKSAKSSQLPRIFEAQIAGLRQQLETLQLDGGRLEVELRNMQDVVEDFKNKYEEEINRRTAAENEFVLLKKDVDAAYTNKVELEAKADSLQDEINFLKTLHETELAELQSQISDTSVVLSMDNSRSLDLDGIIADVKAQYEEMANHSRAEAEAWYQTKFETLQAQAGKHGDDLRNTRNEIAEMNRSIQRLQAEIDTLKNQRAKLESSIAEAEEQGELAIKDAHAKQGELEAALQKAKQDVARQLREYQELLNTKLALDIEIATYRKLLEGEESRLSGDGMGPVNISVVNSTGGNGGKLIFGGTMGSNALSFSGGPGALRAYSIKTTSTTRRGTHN
A further assay deals with CD31 (mouse) (UniProt Q08481). The assay is described as above.
UniProt Q08481, sequence (Q08481 18-727): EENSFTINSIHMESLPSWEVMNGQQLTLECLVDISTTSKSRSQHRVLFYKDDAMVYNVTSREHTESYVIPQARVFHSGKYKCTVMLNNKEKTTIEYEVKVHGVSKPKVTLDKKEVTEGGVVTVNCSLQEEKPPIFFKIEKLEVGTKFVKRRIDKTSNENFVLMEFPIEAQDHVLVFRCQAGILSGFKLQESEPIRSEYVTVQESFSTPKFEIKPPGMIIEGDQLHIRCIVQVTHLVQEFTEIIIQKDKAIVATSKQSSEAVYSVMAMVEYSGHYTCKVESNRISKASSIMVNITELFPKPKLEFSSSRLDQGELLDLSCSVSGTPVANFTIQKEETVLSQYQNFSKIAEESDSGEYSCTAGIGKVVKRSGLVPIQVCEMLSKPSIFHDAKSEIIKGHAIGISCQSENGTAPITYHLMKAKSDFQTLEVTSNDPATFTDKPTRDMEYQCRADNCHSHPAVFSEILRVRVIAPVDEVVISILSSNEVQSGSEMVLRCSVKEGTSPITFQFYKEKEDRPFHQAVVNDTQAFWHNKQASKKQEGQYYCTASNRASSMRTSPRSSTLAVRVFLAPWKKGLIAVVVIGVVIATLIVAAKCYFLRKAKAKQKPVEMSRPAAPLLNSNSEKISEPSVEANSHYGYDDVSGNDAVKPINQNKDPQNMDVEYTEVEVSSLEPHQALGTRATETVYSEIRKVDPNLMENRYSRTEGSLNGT

In the case of MDLSLKP (displayed on phage), the “Cell type the phage clone shows specificity to” value in [1] was “ECM”. In assay [1], the “Marker the phage clone shows specificity to” value is reported as “Collagen”. In addition, in [1], the “Colocalized Markers (p < 0.05)” value was “Collagen”. The “Corresponding Cellular Components” value in [1] is “ECM”. In addition, the “Radiant efficiency Targeting:M13Ke” value in [2] (CP mouse, liver) is reported as 0.72; in assay [2] (CP mouse, pancreas) it was 10.85; in assay [2] (CP mouse, spleen) it was 2.70; in assay [2] (healthy mouse, liver), 0.52; in assay [2] (healthy mouse, pancreas), 5.79; in [2] (healthy mouse, spleen) it was 2.34. Moreover, the “CP-to-Healthy Ratio” value in [2] (Liver) is reported as 1.370; in [2] (Spleen) it was 1.156. Moreover, the “CP-to-Healthy Ratio (fold change of specificity ratio)” value in assay [2] worked out at 1.875. Besides, in [2], the “specificity for CP over healthy pancreas” value is given as “increased specificity for CP over healthy pancreas”. The “Mean Manders' Correlation Coefficient (MCC), fraction of phage overlapping cell marker” value with CK7 (epithelium) is 0.06; in assay [3], 0.31; in [4], 0.46; in the assay with CD31 (endothelium), 0.20; in [5] it was 0.16; in assay [6], 0.828±0.089 and 0.83.

Consider “MDLSLKP (SEQ ID NO: 19) phage clone (peptide)”, for which the mean Manders' correlation coefficient (MCC), fraction of phage overlapping cell marker with F4/80 (mouse) was 0.46; in assay [7], 0.31; in assay [8] it was 0.06; with CD31 (mouse), 0.2.

Consider SLTNSSF (displayed on phage), for which, in assay [1], the “Cell type the phage clone shows specificity to” value was “Macrophage”. Also, the “Corresponding Cellular Components” value in assay [1] was “Macrophage”. Further, the “Radiant efficiency Targeting:M13Ke” value in assay [2] (CP mouse, liver) is recorded as 1.33; in [2] (CP mouse, pancreas), 8.86; in [2] (CP mouse, spleen), 2.65; in assay [2] (healthy mouse, liver), 1.06; in assay [2] (healthy mouse, pancreas), 1.62; in [2] (healthy mouse, spleen), 2.69. The “CP-to-Healthy Ratio” value is on record as 1.248 in [2] (Liver) and 0.985 in assay [2] (Spleen). Besides, in assay [2], the “CP-to-Healthy Ratio (fold change of specificity ratio)” value stood at 5.469. Also, in assay [2], the “specificity for CP over healthy pancreas” value is reported as “increased specificity for CP over healthy pancreas”. Also, the “Mean Manders' Correlation Coefficient (MCC), fraction of phage overlapping cell marker” value was 0.11 with CK7 (epithelium); 0.22 in assay [3]; 0.804±0.090 and 0.80 in assay [4]; 0.13 with CD31 (endothelium); 0.06 in assay [5]; 0.33 in [6].

Take SNSQDLH (displayed on phage): the “Cell type the phage clone shows specificity to” value in assay [1] is “Macrophage”. In addition, the “Corresponding Cellular Components” value in assay [1] was “Macrophage”. Besides, the “Radiant efficiency Targeting:M13Ke” value in [2] (CP mouse, liver) came out at 0.73; in assay [2] (CP mouse, pancreas) it was 6.22; in assay [2] (CP mouse, spleen), 3.27; in assay [2] (healthy mouse, liver), 0.51; in assay [2] (healthy mouse, pancreas), 2.07; in assay [2] (healthy mouse, spleen), 3.11. In addition, the “CP-to-Healthy Ratio” value in assay [2] (Liver) worked out at 1.428; in [2] (Spleen), 0.165. Also, the “CP-to-Healthy Ratio (fold change of specificity ratio)” value in assay [2] is recorded as 3.009. In addition, the “specificity for CP over healthy pancreas” value in assay [2] is “increased specificity for CP over healthy pancreas”. The “Mean Manders' Correlation Coefficient (MCC), fraction of phage overlapping cell marker” value in the assay with CK7 (epithelium) is 0.14; in assay [3], 0.23; in assay [4], 0.800±0.197 and 0.80; with CD31 (endothelium) it was 0.12; in assay [5], 0.05; in assay [6] it was 0.33.

For KTYVPTT (displayed on phage), the “Cell type the phage clone shows specificity to” value in assay [1] is reported as “aPSC”. Also, the “Marker the phage clone shows specificity to” value in assay [1] was “α-SMA^+”. Also, the “Colocalized Markers (p < 0.05)” value in assay [1] is on record as “α-SMA”. Further, the “Corresponding Cellular Components” value in [1] was “aPSC”. Moreover, the “Radiant efficiency Targeting:M13Ke” value was determined as 0.61 in assay [2] (CP mouse, liver); 11.90 in assay [2] (CP mouse, pancreas); 3.05 in assay [2] (CP mouse, spleen); 0.53 in assay [2] (healthy mouse, liver); 8.74 in assay [2] (healthy mouse, pancreas); 3.43 in [2] (healthy mouse, spleen). Also, the “CP-to-Healthy Ratio” value in [2] (Liver) came to 1.161; in [2] (Spleen), 0.890. In addition, the “CP-to-Healthy Ratio (fold change of specificity ratio)” value in [2] is given as 1.362. Also, in assay [2], the “specificity for CP over healthy pancreas” value is given as “increased specificity for CP over healthy pancreas”. Also, the “Mean Manders' Correlation Coefficient (MCC), fraction of phage overlapping cell marker” value was 0.06 in the assay on CK7 (epithelium); 0.26 in assay [3]; 0.31 in assay [4]; 0.20 in the assay on CD31 (endothelium); 0.521±0.067 and 0.52 in assay [5]; 0.23 in [6].
